Biological target: T1, ACE extracted from rabbit lungs (Oryctolagus cuniculus, UniProt P12822)
T1 construct: solutions of ACE extracted from rabbit lungs; from tissue; host or cells: rabbit lung
T1 sequence (P12822 34-1310): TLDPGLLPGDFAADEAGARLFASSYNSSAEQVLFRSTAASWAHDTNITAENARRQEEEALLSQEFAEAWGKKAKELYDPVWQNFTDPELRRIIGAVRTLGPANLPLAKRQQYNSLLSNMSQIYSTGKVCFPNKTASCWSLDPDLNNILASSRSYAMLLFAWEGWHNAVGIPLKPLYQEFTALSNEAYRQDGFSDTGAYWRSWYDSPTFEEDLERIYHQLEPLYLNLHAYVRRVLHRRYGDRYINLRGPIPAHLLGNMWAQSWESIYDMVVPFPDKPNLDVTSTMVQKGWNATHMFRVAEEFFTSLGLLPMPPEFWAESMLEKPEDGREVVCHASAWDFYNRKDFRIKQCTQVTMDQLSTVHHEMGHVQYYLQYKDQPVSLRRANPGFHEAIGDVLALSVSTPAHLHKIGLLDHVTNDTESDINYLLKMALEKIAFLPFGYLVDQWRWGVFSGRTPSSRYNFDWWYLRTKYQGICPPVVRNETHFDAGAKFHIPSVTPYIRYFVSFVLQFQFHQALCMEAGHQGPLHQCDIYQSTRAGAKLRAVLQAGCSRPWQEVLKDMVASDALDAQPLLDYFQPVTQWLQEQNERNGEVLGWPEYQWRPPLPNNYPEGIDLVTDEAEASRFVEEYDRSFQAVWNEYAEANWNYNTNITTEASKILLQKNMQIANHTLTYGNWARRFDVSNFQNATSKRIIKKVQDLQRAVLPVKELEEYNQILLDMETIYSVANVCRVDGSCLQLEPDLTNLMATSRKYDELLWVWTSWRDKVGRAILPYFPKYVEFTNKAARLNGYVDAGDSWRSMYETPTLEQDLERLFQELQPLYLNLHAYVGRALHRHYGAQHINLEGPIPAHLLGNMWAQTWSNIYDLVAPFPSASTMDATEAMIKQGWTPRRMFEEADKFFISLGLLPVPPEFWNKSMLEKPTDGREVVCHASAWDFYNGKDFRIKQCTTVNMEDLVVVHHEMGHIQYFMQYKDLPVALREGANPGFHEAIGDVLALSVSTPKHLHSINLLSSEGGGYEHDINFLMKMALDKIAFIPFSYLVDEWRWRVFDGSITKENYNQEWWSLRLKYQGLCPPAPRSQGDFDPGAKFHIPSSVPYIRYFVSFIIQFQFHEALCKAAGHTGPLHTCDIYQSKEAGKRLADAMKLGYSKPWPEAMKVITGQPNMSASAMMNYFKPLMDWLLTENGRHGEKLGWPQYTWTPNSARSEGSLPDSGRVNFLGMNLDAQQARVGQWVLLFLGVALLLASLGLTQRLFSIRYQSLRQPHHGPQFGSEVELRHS
Assay: inhibition of ACE activity in vitro (hippurylhistidylleucine substrate; procedure of Cushman et al.)
Assay type: biochemical
Settings: borate buffer with sodium chloride, pH 8.3, 37° C., 30 minutes, hippuric acid by UV 228 nm
Method: As noted above, the compounds of the present invention have the ability to inhibit the activity of ACE, the enzyme which converts angiotensin I to angiotensin II and also inactivates bradykinin. […] W. Cushman et al. [Biochemical Pharmachology, 20, 1637 (1971)]. […] The enzymatic reaction was allowed to proceed at 37° C. for 30 minutes, after which time the reaction was terminated by adding 1N aqueous hydrochloric acid. […] The residual hippuric acid was dissolved in water. The amount of hippuric acid in the resulting aqueous solution was determined by the absorbency to ultraviolet radiation at 228 nm. These values were then plotted to form a curve indicating the relationship between the amount of hippuric acid formed and the concentration of the test compound. The IC50 value can be obtained by reading on this curve the concentration of the test compound which reduces the amount of hippuric acid formed to one half of that formed when no test compound is present.

Row | Structure (SMILES) | IC50
1 | O=C(O)CN1CC(c2cccs2)SCC(NC(CCc2ccccc2)C(=O)O)C1=O (single isomer, unassigned) [E] | 2.4 nM
2 | O=C(O)CN1C(=O)[C@@H](N[C@@H](CCc2ccccc2)C(=O)O)CSC[C@H]1c1ccccc1 [A] | 1.1 nM
3 | CC(C)[C@@H]1CSC[C@H](N[C@@H](CCc2ccccc2)C(=O)O)C(=O)N1CC(=O)O [B] | 1.6 nM
4 | O=C(O)CN1C(=O)[C@@H](N[C@@H](CCc2ccccc2)C(=O)O)CSC[C@H]1c1cccs1 [G] | 1.4 nM
5 | C[C@@H]1CSC[C@H](N[C@@H](CCc2ccccc2)C(=O)O)C(=O)N1CC(=O)O [J] | 3 nM
6 | O=C(O)CN1C(=O)[C@@H](N[C@@H](CCc2ccccc2)C(=O)O)CSC[C@@H]1Cc1ccccc1 [K] | 1.3 nM

Second part, the molecule after the results:

Row | IC50 | Structure (SMILES)
7 | 2.4 nM | O=C(O)CN1CC(c2ccccc2)SCC(NC(CCc2ccccc2)C(=O)O)C1=O (single isomer, unassigned) [C]
8 | 2.5 nM | O=C(O)CN1CC(c2ccsc2)SCC(NC(CCc2ccccc2)C(=O)O)C1=O (single isomer, unassigned) [D]
9 | 3 nM | O=C(O)CN1CC(c2ccco2)SCC(NC(CCc2ccccc2)C(=O)O)C1=O (single isomer, unassigned) [F]
10 | 1.6 nM | O=C(O)CN1CC(c2cccc3ccccc23)SCC(NC(CCc2ccccc2)C(=O)O)C1=O (single isomer, unassigned) [H]
11 | 2 nM | O=C(O)CN1CC(c2ccc3ccccc3c2)SCC(NC(CCc2ccccc2)C(=O)O)C1=O (single isomer, unassigned) [I]
